Type in all cases: functional
The test system of assay [1] is MT4. The assay is described as follows: Compound was tested in vitro for Minimum inhibitory concentration required to reduce HSV-1 TK-(B2006) induced cytopathicity in Human MT-4 cells. (In general: Protection from cytopathic effect is a common read-out in antiviral testing.)
Assay [2] relates to MT4. The assay is described as follows: Compound was tested in vitro for Minimum inhibitory concentration required to reduce VZV TK+(OKA) induced cytopathicity in Human MT-4 cells.
The test system of assay [3] is MT4. The assay is described as follows: Compound was tested in vitro for Minimum inhibitory concentration required to reduce VZV TK+(YS) induced cytopathicity in Human MT-4 cells.
Assay [4] has as its system MT4. The assay is described as follows: Compound was tested in vitro for Minimum inhibitory concentration required to reduce HSV-1(IIIb) induced cytopathicity in Human MT-4 cells.
Assay [5] has as its system MT4. Description: Compound was tested in vitro for Minimum inhibitory concentration required to reduce VZV TK-(YS/R) induced cytopathicity in Human MT-4 cells.
Assay [6] concerns MT4. The assay is described as follows: Minimum inhibitory concentration required to reduce VZV TK-(07-1) induced cytopathicity in Human MT-4 cells.
Assay [7] concerns MT4. The assay is described as follows: Compound was tested in vitro for Minimum inhibitory concentration required to reduce CMV(Davis) induced cytopathicity in Human MT-4 cells.
In assay [8] the test system is MT4. The assay is described as follows: Compound was tested in vitro for Minimum inhibitory concentration required to reduce CMV(AD-169) induced cytopathicity in Human MT-4 cells.
The subject of assay [9] is MT4. The assay is described as follows: Compound was tested in vitro for minimum inhibitory concentration required to reduce HSV-1(KOS) induced cytopathicity in Human MT-4 cells.
For assay [10], the system named is MT4. The assay is described as follows: Compound was tested in vitro for Minimum inhibitory concentration required to reduce HSV-2(ROD) induced cytopathicity in Human MT-4 cells.
For assay [11], the system named is HEL. The assay is described as follows: Compound was tested in vitro for Minimum inhibitory concentration required to reduce VZV TK+(YS) induced cytopathicity in HEL cells. As to conditions: Homo sapiens.
Assay [12] relates to HEL. Description: Compound was tested in vitro for Minimum inhibitory concentration required to reduce CMV(Davis) induced cytopathicity in HEL cells. To be noted: Homo sapiens.
In assay [13] the test system is HEL. Description: Compound was tested in vitro for Minimum inhibitory concentration required to reduce CMV(AD-169) induced cytopathicity in HEL cells. To be noted: Homo sapiens.
For assay [14], the system named is HEL. Description: Compound was tested in vitro for Minimum inhibitory concentration required to reduce VZV TK-(YS/R) induced cytopathicity in HEL cells. As to conditions: Homo sapiens.
In assay [15] the test system is HEL. Description: Minimum inhibitory concentration required to reduce VZV TK-(07-1) induced cytopathicity in HEL cells. As to conditions: Homo sapiens.
Assay [16] concerns HEL. The assay is described as follows: Compound was tested in vitro for Minimum inhibitory concentration required to reduce VZV TK+(OKA) induced cytopathicity in HEL cells. As to conditions: Homo sapiens.
Assay [17] concerns C3H/3T3. The assay is described as follows: Compound was tested in vitro for Minimum inhibitory concentration required to reduce MSV induced cytopathicity in murine C3H/3T3 embryo fibroblasts. To be noted: Mus musculus.
For assay [18], the system named is E6SM. The assay is described as follows: Compound was tested in vitro for minimum inhibitory concentration required to reduce HSV-1(KOS) induced cytopathicity in E6SM cells. To be noted: Homo sapiens.
In assay [19] the test system is HEL. Description: Compound was tested in vitro for Minimum inhibitory concentration required to reduce CMV (AD-169) induced cytopathicity in HEL cells. To be noted: Homo sapiens.
Assay [20] relates to HEL. The assay is described as follows: Compound was tested in vitro for Minimum inhibitory concentration required to reduce VZV TK-(07-1) induced cytopathicity in HEL cells. As to conditions: Homo sapiens.

Molecules are shown by their SMILES. In brackets after ≈: the same amount, converted by molar mass.

For `Nc1ncnc2c1ncn2C[C@@H](CO)OCP(=O)(O)O`, the MIC was 0.1 µg/mL (≈ 0.33 µM) in assay [1]; 0.03 µg/mL (≈ 0.0989 µM) in assay [2]; 0.05 µg/mL (≈ 0.165 µM) in assay [3]; > 20 µg/mL in [4]; 0.01 µg/mL (≈ 0.033 µM) in assay [5]; 0.04 µg/mL (≈ 0.132 µM) in [6]. Moreover, the MIC in assay [7] was 0.2 µg/mL (≈ 0.66 µM); in assay [8], 0.15 µg/mL (≈ 0.495 µM); in [9], 0.2 µg/mL (≈ 0.66 µM); in [10], > 20 µg/mL.
With `Nc1ncnc2c1ncn2CC(CNC(=O)c1ccccc1C(=O)O)OCP(=O)(O)O` (stereo unspecified), the MIC in [11], in assay [12], in [13], in assay [14], in [15] and in assay [16] was > 50000 µg/mL each time.
As for `Nc1nc(N)c2ncn(CC(CNC(=O)c3ccccc3C(=O)O)OCP(=O)(O)O)c2n1` (stereo unspecified), the MIC in [11], in [12], in [13], in assay [14], in assay [15] and in assay [16] was > 50000 µg/mL in each case.
In the case of `Nc1ncnc2c1ncn2CCOCP(=O)(O)O` [ADEFOVIR], the MIC in [1] was 20 µg/mL (≈ 73.2 µM); in assay [2], 25 µg/mL (≈ 91.5 µM); in assay [3], 31 µg/mL (≈ 113 µM); in [4], 1.5 µg/mL (≈ 5.49 µM); in [5], 14 µg/mL (≈ 51.2 µM); in assay [6] it was 14 µg/mL (≈ 51.2 µM). Further, the MIC was determined as 29 µg/mL (≈ 106 µM) in assay [7], 28 µg/mL (≈ 102 µM) in [8], 7 µg/mL (≈ 25.6 µM) in [9] and 1.5 µg/mL (≈ 5.49 µM) in [10].
For `Nc1ncnc2c1ncn2CC(CN1CCOCC1)OCP(=O)(O)O` (stereo unspecified), the MIC was > 50000 µg/mL in assay [11]; 25000 µg/mL (≈ 67100 µM) in [17]; > 50000 µg/mL in assay [12]; > 50000 µg/mL in assay [13]; > 50000 µg/mL in assay [14]; > 50000 µg/mL in [15]. The MIC is > 50000 µg/mL in assay [16] and 70000 µg/mL (≈ 188000 µM) in [18].
As to `C[N+](C)(C)CC(Cn1cnc2c(O)nc(N)nc21)OCP(=O)(O)O` (stereo unspecified), the MIC in assay [11], in assay [13] and in assay [16] was > 50000 µg/mL each time.
In the case of `C[N+](C)(C)CC(Cn1cnc2c(N)nc(N)nc21)OCP(=O)(O)O` (stereo unspecified), the MIC in assay [11] and in assay [19] was > 50000 µg/mL each time.
As for `CN(C)CC(Cn1cnc2c(N)ncnc21)OCP(=O)(O)O` (stereo unspecified), the MIC in assay [11], in [12], in assay [13], in [14], in assay [15] and in assay [16] was > 20000 µg/mL each time.
Take `NCC(Cn1cnc2c(N)ncnc21)OCP(=O)(O)O` (stereo unspecified): the MIC amounted to 11 µg/mL (≈ 36.4 µM) in [2]; 7 µg/mL (≈ 23.2 µM) in [3]; 7 µg/mL (≈ 23.2 µM) in assay [5]; 35 µg/mL (≈ 116 µM) in [7]; 15 µg/mL (≈ 49.6 µM) in assay [8].
Consider `C[N+](C)(C)CC(Cn1cnc2c(N)ncnc21)OCP(=O)(O)O` (stereo unspecified), for which the MIC in assay [11], in [12], in [13], in [16] and in [20] was > 50000 µg/mL in each case.

These data come from ChEMBL document CHEMBL1129276, “Synthesis of 2'-aminomethyl derivatives of N-(2-(phosphonomethoxy)ethyl) nucleotide analogues as potential antiviral agents” (1996).
